{
  "source": "paper PMC12613848",
  "about": "“First in human phase 1 study of DT2216, a selective BCL-xL degrader, in patients with relapsed/refractory solid malignancies” (Journal of Hematology & Oncology, 2025)",
  "biological_target": "T1, BCL-XL (Homo sapiens, UniProt Q07817)",
  "T1 construct": "endogenous in cells; host or cells: peripheral leukocytes (WBC) of trial patients",
  "T1 sequence (Q07817 whole entry)": "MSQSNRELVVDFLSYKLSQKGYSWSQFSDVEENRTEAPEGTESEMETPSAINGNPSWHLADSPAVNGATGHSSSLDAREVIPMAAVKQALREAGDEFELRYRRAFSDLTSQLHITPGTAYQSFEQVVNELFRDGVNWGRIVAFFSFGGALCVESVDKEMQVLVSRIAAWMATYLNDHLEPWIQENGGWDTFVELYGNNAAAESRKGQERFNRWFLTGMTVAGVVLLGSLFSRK",
  "test": "BCL-XL levels in peripheral leukocytes of patients by western blotting",
  "format": "in vivo",
  "conditions": "0.4 mg/kg IV, 4 patients, after C1D1",
  "procedure": "Methods A dose escalation study using a 3 + 3 design with doses ranging from 0.04 to 0.4 mg/kg IV twice weekly (BIW) was performed. Eligible subjects had solid tumors of any histology that had progressed on standard treatment and had measurable tumor by RECIST v1.1. Tumor assessment was performed at 8-week intervals. BCL-XL levels were measured in peripheral leukocytes by western blotting. Results Twenty patients were enrolled, with a median age of 60.5 year; 60% were female. Only one dose-limiting toxicity was observed, grade 4 thrombocytopenia that resolved within 48 h. Stable disease, observed in 20% of the patients. The lowest platelet count in the first cycle ranged from 24,000 to 297,000. In all cases, the platelet count recovered to > 50,000 within 4 days and > 75,000 within 1 week. […] The median overall survival was 7.9 months. […] Conclusions Based on the rapid recovery of transient thrombocytopenia that occurred only in the first cycle and the degradation of BCL-XL in peripheral leukocytes, the RP2D of DT2216 is 0.4 mg/kg IV BIW. (NCT04886622)\nPremedication prior to each infusion was at the discretion of the investigator or according to institutional guidelines. Patient assessment and follow-up procedures can be found in the schedule of assessments in this study. The clinical response was evaluated using RECIST v1.1 per protocol. […]",
  "note": "Entries after “also recorded” stand apart in the source; their conditions may differ.",
  "data": [
    {"compound": "Cc1ncsc1-c1ccc([C@H](C)NC(=O)[C@@H]2C[C@@H](O)CN2C(=O)[C@@H](NC(=O)CCCCCC(=O)N2CCN(CC[C@H](CSc3ccccc3)Nc3ccc(S(=O)(=O)NC(=O)c4ccc(N5CCN(CC6=C(c7ccc(Cl)cc7)CCC(C)(C)C6)CC5)cc4)cc3S(=O)(=O)C(F)(F)F)CC2)C(C)(C)C)cc1", "note": "[DT2216]", "values": [
      {"measurement": "BCL-XL expression in peripheral leukocytes", "value": "rapid and sustained degradation of BCL-XL; also recorded: decreases rapidly after infusion of DT2216 and is persistent"}
    ]}
  ]
}
